Laboratory results taken from article PMC8119466, “A screen of FDA-approved drugs identifies inhibitors of protein tyrosine phosphatase 4A3 (PTP4A3 or PRL-3)” (Scientific Reports, 2021).
Structures can show the parent of a compound that is named as a salt.

Experiments:
Format in all cases: biochemical
[1] = molecular target: T1, recombinant PRL-1 (Homo sapiens, UniProt Q93096); test: In vitro phosphatase assay (DiFMUP hydrolysis), PRL-1; conditions: for % Phosphatase Activity (compared to DMSO) PRL-1: FDA-approved drug screen
T1 construct: 6xHis (N, cleaved yes); made in house; host or cells: E. coli One Shot BL21 Star
T1 sequence (Q93096 1-173): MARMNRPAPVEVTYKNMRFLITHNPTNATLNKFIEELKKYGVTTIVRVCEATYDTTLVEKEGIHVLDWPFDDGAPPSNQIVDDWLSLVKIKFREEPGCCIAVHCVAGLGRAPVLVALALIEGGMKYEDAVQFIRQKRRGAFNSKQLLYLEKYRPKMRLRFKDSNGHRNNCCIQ

[2] = molecular target: T2, recombinant PRL-2 (Homo sapiens, UniProt Q12974); test: In vitro phosphatase assay (DiFMUP hydrolysis), PRL-2; conditions: for % Phosphatase Activity (compared to DMSO) PRL-2: FDA-approved drug screen;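 on all read-outs here: PRL-2 activity read as DiFMUP hydrolysis after 20 min at room temperature with drug, enzyme first pre-reduced at 4 °C for 20 min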
T2 construct: 6xHis (N, cleaved yes); made in house; host or cells: E. coli One Shot BL21 Star
T2 sequence (Q12974 1-167): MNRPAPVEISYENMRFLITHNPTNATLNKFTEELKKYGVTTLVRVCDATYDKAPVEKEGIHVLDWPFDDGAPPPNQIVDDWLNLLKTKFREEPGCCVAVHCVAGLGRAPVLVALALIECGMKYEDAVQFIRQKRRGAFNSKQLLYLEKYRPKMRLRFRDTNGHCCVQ

[3] = molecular target: T3, recombinant PRL-3 (Homo sapiens, UniProt O75365); test: In vitro phosphatase assay (DiFMUP hydrolysis), PRL-3; conditions: for % Phosphatase Activity (compared to DMSO) PRL-3: FDA-approved drug screen
T3 construct: 6xHis (N, cleaved yes); made in house; host or cells: E. coli One Shot BL21 Star
T3 sequence (O75365 whole entry): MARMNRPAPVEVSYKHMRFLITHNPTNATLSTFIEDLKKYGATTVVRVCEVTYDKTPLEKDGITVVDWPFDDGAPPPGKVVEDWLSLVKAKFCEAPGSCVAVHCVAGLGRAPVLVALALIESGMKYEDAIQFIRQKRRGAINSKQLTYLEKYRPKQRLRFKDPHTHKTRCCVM

Compound: C[C@@H](O)[C@H]1C(=O)N2C(C(=O)[O-])=C(SC3Cn4cnc[n+]4C3)[C@H](C)[C@H]12 (stereo partly drawn) [Biapenem]
- % Phosphatase Activity (compared to DMSO) PRL-1 [1]: 100%
- % Phosphatase Activity (compared to DMSO) PRL-2 [2]: 74%
- % Phosphatase Activity (compared to DMSO) PRL-3 [3]: 93%

Compound: CC(O)(CS(=O)(=O)c1ccc(F)cc1)C(=O)Nc1ccc(C#N)c(C(F)(F)F)c1 (stereo not drawn) [Bicalutamide]
- % Phosphatase Activity (compared to DMSO) PRL-1 [1]: 118%
- % Phosphatase Activity (compared to DMSO) PRL-2 [2]: 108%
- % Phosphatase Activity (compared to DMSO) PRL-3 [3]: 99%

Compound: c1ccc(-c2ccc(C(c3ccccc3)n3ccnc3)cc2)cc1 (stereo not drawn) [Bifonazole]
- % Phosphatase Activity (compared to DMSO) PRL-1 [1]: 86%
- % Phosphatase Activity (compared to DMSO) PRL-2 [2]: 108%
- % Phosphatase Activity (compared to DMSO) PRL-3 [3]: 94%

Compound: O=C(O)CCCC[C@@H]1SC[C@@H]2NC(=O)N[C@@H]21 [Biotin (Vitamin B7)]
- % Phosphatase Activity (compared to DMSO) PRL-1 [1]: 104%
- % Phosphatase Activity (compared to DMSO) PRL-2 [2]: 101%
- % Phosphatase Activity (compared to DMSO) PRL-3 [3]: 86%

Compound: CC[C@H](NC(=O)[C@H](C)NC)C(=O)N1C[C@@H](O)C[C@H]1Cc1c(-c2[nH]c3cc(F)ccc3c2C[C@@H]2C[C@H](O)CN2C(=O)[C@H](CC)NC(=O)[C@H](C)NC)[nH]c2cc(F)ccc12 [Birinapant]
- % Phosphatase Activity (compared to DMSO) PRL-1 [1]: 138%
- % Phosphatase Activity (compared to DMSO) PRL-2 [2]: 129%
- % Phosphatase Activity (compared to DMSO) PRL-3 [3]: 138%

Compound: CC(=O)Oc1ccc(C(c2ccc(OC(C)=O)cc2)c2ccccn2)cc1 [Bisacodyl]
- % Phosphatase Activity (compared to DMSO) PRL-1 [1]: 88%
- % Phosphatase Activity (compared to DMSO) PRL-2 [2]: 104%
- % Phosphatase Activity (compared to DMSO) PRL-3 [3]: 66%

Compound: CC(C)NCC(O)COc1ccc(COCCOC(C)C)cc1 (stereo not drawn) [Bisoprolol fumarate]
- % Phosphatase Activity (compared to DMSO) PRL-1 [1]: 104%
- % Phosphatase Activity (compared to DMSO) PRL-2 [2]: 124%
- % Phosphatase Activity (compared to DMSO) PRL-3 [3]: 89%

Compound: Oc1c(Cl)cc(Cl)cc1Sc1cc(Cl)cc(Cl)c1O [Bithionol, reference compound]
- IC50 ([1]; 2.5 µM protein, DiFMUP at KM, read-out: Calculated IC50, PRL-1 phosphatase activity): 79 ± 25 µM
- % Phosphatase Activity (compared to DMSO) PRL-1 [1]: 52%
- IC50 ([2]; 2.5 µM protein, DiFMUP at KM, read-out: Calculated IC50, PRL-2 phosphatase activity): 115 ± 34 µM
- % Phosphatase Activity (compared to DMSO) PRL-2 [2]: 80%
- IC50 ([3]; 2.5 µM protein, DiFMUP at KM, read-out: Calculated IC50, PRL-3 phosphatase activity): 33 ± 2 µM
- % Phosphatase Activity (compared to DMSO) PRL-3 [3]: 6%

Compound: C[C@H](Oc1ccc(S(C)(=O)=O)cc1C(=O)N1CCN(c2ncc(C(F)(F)F)cc2F)CC1)C(F)(F)F [Bitopertin]
- % Phosphatase Activity (compared to DMSO) PRL-1 [1]: 93%
- % Phosphatase Activity (compared to DMSO) PRL-2 [2]: 73%
- % Phosphatase Activity (compared to DMSO) PRL-3 [3]: 82%

Compound: CC(C)C[C@H](NC(=O)[C@H](Cc1ccccc1)NC(=O)c1cnccn1)B(O)O [Bortezomib (PS-341)]
- % Phosphatase Activity (compared to DMSO) PRL-1 [1]: 104%
- % Phosphatase Activity (compared to DMSO) PRL-2 [2]: 121%
- % Phosphatase Activity (compared to DMSO) PRL-3 [3]: 93%

Compound: COc1ccccc1Oc1c(NS(=O)(=O)c2ccc(C(C)(C)C)cc2)nc(-c2ncccn2)nc1OCCO [Bosentan Hydrate]
- % Phosphatase Activity (compared to DMSO) PRL-1 [1]: 87%
- % Phosphatase Activity (compared to DMSO) PRL-2 [2]: 96%
- % Phosphatase Activity (compared to DMSO) PRL-3 [3]: 93%

Compound: COc1ccccc1Oc1c(NS(=O)(=O)c2ccc(C(C)(C)C)cc2)nc(-c2ncccn2)nc1OCCO [Bosentan]
- % Phosphatase Activity (compared to DMSO) PRL-1 [1]: 83%
- % Phosphatase Activity (compared to DMSO) PRL-2 [2]: 84%
- % Phosphatase Activity (compared to DMSO) PRL-3 [3]: 71%

Compound: O=c1ccc2ccc(OCCCCN3CCN(c4cccc5sccc45)CC3)cc2[nH]1 [Brexpiprazole]
- % Phosphatase Activity (compared to DMSO) PRL-1 [1]: 97%
- % Phosphatase Activity (compared to DMSO) PRL-2 [2]: 115%
- % Phosphatase Activity (compared to DMSO) PRL-3 [3]: 92%

Compound: CCN[C@H]1CN(CCCOC)S(=O)(=O)c2sc(S(N)(=O)=O)cc21 [Brinzolamide]
- % Phosphatase Activity (compared to DMSO) PRL-1 [1]: 92%
- % Phosphatase Activity (compared to DMSO) PRL-2 [2]: 110%
- % Phosphatase Activity (compared to DMSO) PRL-3 [3]: 81%

Compound: Nc1c(CC(=O)O)cccc1C(=O)c1ccc(Br)cc1 [Bromfenac Sodium]
- % Phosphatase Activity (compared to DMSO) PRL-1 [1]: 86%
- % Phosphatase Activity (compared to DMSO) PRL-2 [2]: 99%
- % Phosphatase Activity (compared to DMSO) PRL-3 [3]: 75%

Compound: CN(Cc1cc(Br)cc(Br)c1N)C1CCCCC1 [Bromhexine HCl]
- % Phosphatase Activity (compared to DMSO) PRL-1 [1]: 95%
- % Phosphatase Activity (compared to DMSO) PRL-2 [2]: 122%
- % Phosphatase Activity (compared to DMSO) PRL-3 [3]: 86%

Compound: CN(C)CCC(c1ccc(Br)cc1)c1ccccn1.O=C(O)/C=C\C(=O)O (stereo not drawn) [Brompheniramine hydrogen maleate]
- % Phosphatase Activity (compared to DMSO) PRL-1 [1]: 108%
- % Phosphatase Activity (compared to DMSO) PRL-2 [2]: 107%
- % Phosphatase Activity (compared to DMSO) PRL-3 [3]: 78%

Compound: O=[N+]([O-])C(Br)(CO)CO [Bronopol]
- % Phosphatase Activity (compared to DMSO) PRL-1 [1]: 103%
- % Phosphatase Activity (compared to DMSO) PRL-2 [2]: 96%
- % Phosphatase Activity (compared to DMSO) PRL-3 [3]: 86%

Compound: Oc1c(Br)cc(Br)c2cccnc12 [Broxyquinoline]
- % Phosphatase Activity (compared to DMSO) PRL-1 [1]: 94%
- % Phosphatase Activity (compared to DMSO) PRL-2 [2]: 101%
- % Phosphatase Activity (compared to DMSO) PRL-3 [3]: 72%

Compound: CCOc1ccc(NC(=O)CC(C)O)cc1 (stereo not drawn) [Bucetin]
- % Phosphatase Activity (compared to DMSO) PRL-1 [1]: 109%
- % Phosphatase Activity (compared to DMSO) PRL-2 [2]: 108%
- % Phosphatase Activity (compared to DMSO) PRL-3 [3]: 92%

Compound: CCCC1O[C@@H]2C[C@H]3[C@@H]4CCC5=CC(=O)C=C[C@]5(C)[C@H]4[C@@H](O)C[C@]3(C)[C@]2(C(=O)CO)O1 (stereo partly drawn) [Budesonide]
- % Phosphatase Activity (compared to DMSO) PRL-1 [1]: 93%
- % Phosphatase Activity (compared to DMSO) PRL-2 [2]: 100%
- % Phosphatase Activity (compared to DMSO) PRL-3 [3]: 76%

Compound: CCCCOc1ccc(CC(=O)NO)cc1 [Bufexamac]
- % Phosphatase Activity (compared to DMSO) PRL-1 [1]: 117%
- % Phosphatase Activity (compared to DMSO) PRL-2 [2]: 110%
- % Phosphatase Activity (compared to DMSO) PRL-3 [3]: 91%

Compound: CCCCNc1cc(C(=O)O)cc(S(N)(=O)=O)c1Oc1ccccc1 [Bumetanide]
- % Phosphatase Activity (compared to DMSO) PRL-1 [1]: 123%
- % Phosphatase Activity (compared to DMSO) PRL-2 [2]: 128%
- % Phosphatase Activity (compared to DMSO) PRL-3 [3]: 98%

Compound: CCCCN1CCCCC1C(=O)Nc1c(C)cccc1C (stereo not drawn) [Bupivacaine HCl]
- % Phosphatase Activity (compared to DMSO) PRL-1 [1]: 108%
- % Phosphatase Activity (compared to DMSO) PRL-2 [2]: 108%
- % Phosphatase Activity (compared to DMSO) PRL-3 [3]: 82%

Compound: O=C1CC2(CCCC2)CC(=O)N1CCCCN1CCN(c2ncccn2)CC1 [Buspirone HCl]
- % Phosphatase Activity (compared to DMSO) PRL-1 [1]: 89%
- % Phosphatase Activity (compared to DMSO) PRL-2 [2]: 91%
- % Phosphatase Activity (compared to DMSO) PRL-3 [3]: 75%

Compound: CS(=O)(=O)OCCCCOS(C)(=O)=O [Busulfan]
- % Phosphatase Activity (compared to DMSO) PRL-1 [1]: 103%
- % Phosphatase Activity (compared to DMSO) PRL-2 [2]: 95%
- % Phosphatase Activity (compared to DMSO) PRL-3 [3]: 79%

Compound: CCCCOC(=O)c1ccc(N)cc1 [Butamben]
- % Phosphatase Activity (compared to DMSO) PRL-1 [1]: 91%
- % Phosphatase Activity (compared to DMSO) PRL-2 [2]: 94%
- % Phosphatase Activity (compared to DMSO) PRL-3 [3]: 80%

Compound: CN(Cc1ccc(C(C)(C)C)cc1)Cc1cccc2ccccc12 [Butenafine HCl]
- % Phosphatase Activity (compared to DMSO) PRL-1 [1]: 117%
- % Phosphatase Activity (compared to DMSO) PRL-2 [2]: 112%
- % Phosphatase Activity (compared to DMSO) PRL-3 [3]: 88%

Compound: Clc1ccc(CCC(Cn2ccnc2)Sc2c(Cl)cccc2Cl)cc1 (stereo not drawn) [Butoconazole nitrate]
- % Phosphatase Activity (compared to DMSO) PRL-1 [1]: 97%
- % Phosphatase Activity (compared to DMSO) PRL-2 [2]: 109%
- % Phosphatase Activity (compared to DMSO) PRL-3 [3]: 98%

Compound: CCCCOC(=O)c1ccc(O)cc1 [Butylparaben]
- % Phosphatase Activity (compared to DMSO) PRL-1 [1]: 91%
- % Phosphatase Activity (compared to DMSO) PRL-2 [2]: 94%
- % Phosphatase Activity (compared to DMSO) PRL-3 [3]: 80%

Compound: CC[C@H](Nc1ncnc2[nH]cnc12)c1nc2cccc(F)c2c(=O)n1-c1ccccc1 [CAL-101 (Idelalisib, GS-1101)]
- % Phosphatase Activity (compared to DMSO) PRL-1 [1]: 102%
- % Phosphatase Activity (compared to DMSO) PRL-2 [2]: 104%
- % Phosphatase Activity (compared to DMSO) PRL-3 [3]: 77%

Compound: NC(=O)c1cc(N2CC2)c([N+](=O)[O-])cc1[N+](=O)[O-] [CB1954]
- % Phosphatase Activity (compared to DMSO) PRL-1 [1]: 100%
- % Phosphatase Activity (compared to DMSO) PRL-2 [2]: 74%
- % Phosphatase Activity (compared to DMSO) PRL-3 [3]: 105%

Compound: CC(C)C[C@H](NC(=O)[C@@H](NC(=O)c1cccc(-c2ccccc2)n1)[C@@H](C)O)B(O)O [CEP-18770 (Delanzomib)]
- % Phosphatase Activity (compared to DMSO) PRL-1 [1]: 103%
- % Phosphatase Activity (compared to DMSO) PRL-2 [2]: 98%
- % Phosphatase Activity (compared to DMSO) PRL-3 [3]: 82%
